“Also recorded” adds a separate entry of the source. Bridge positions count the residues as written; N and C are the ends. Ends that are not written are not given here.

Common to all, as to assay type: cell-based, human
Series [1] relates to hiPSC-CMs. Kind of series: Optical recording of action potential with genetically encoded voltage indicators (Varnam, Arclight). As to conditions: cells on CMM. From the text:
Cyto-calcium, Action potential and redox handling. Cytoplasmic calcium and redox status of iPSC-CMs using spinning disk confocal microscope (Olympus/Andor Revolution XD) was monitored. 3rd gen. lentiviral probes using ViraPower™ Lentiviral mix was generated and transduced iPSC-CMs using MOI 5 (multiplicity of infection) that generated good signal to noise ratio. Cytoplasmic targeted roGFP-Grx1 probes(Gutscher et al., 2008), Calcium probe (genetically encoded Ca^2+ indicators (GECIs)-GCamP6f(Hubbi et al., 2013), Arclight(Jin et al., 2012) and Varnam(Kannan et al., 2018) were obtained from Addgene and transferred to pENTR™/SD/D-TOPO® vector using PCR. The vector was sequence verified and then transferred to pLEX_307 vector (Addgene plasmid #41392) that contains the EFlα promoter using the LR reaction. […] The virus was generated for each probe in HEK293-FT cells using an optimized mix of three packaging plasmids (pLP1, pLP2, and pLP/VSVG). The virus was concentrated using PEG-it™ Virus Precipitation Solution (SBI biosciences) that also removes HEK293-FT cell medium.
To monitor the florescence signal from cells transduced with probes, cells were plated at a density of 200,000 per cm^2 on cultured surfaces for at least 10-15 days prior to imaging, to achieve cell-cell coupling. […]
Florescence from cells (transduced with probes) was collected separately at a […] using an electron-multiplying charge-coupled device (EMCCD) camera using Andor Revolution X1 Spinning Disk confocal inverted microscope. […] ROS (roGFP2-Grx) probes were excited with 405 nm and 488 nm laser and emission was detected using bandpass filter of 500 nm-554 nm. […] Recovery of glutathione pool was monitored for 180-240 sec before the utilization of diamide (oxidized) and DTT (reduced) to obtain min and max signal. […] Cells transduced with cytoplasmic GCamp6f were excited at 488 nm and emission was detected using bandpass filter of 500 nm-554 nm. […] The data was analyzed using image J (NIH).

For series [2], the system named is hiPSC-CMs. In words: Sarcoplasmic reticulum calcium content, caffeine-induced Ca2+ release, Fura2 imaging. The following applies: 10 mM. The procedure: To investigate calcium content of the sarcoplasmic reticulum (SR), Fura2 (ThermoFisher 3 uM) loaded cells were perfused with caffeine. Cells were initially perfused with modified Tyrode solution at 37C (pH 7.4) containing (in mM) 130 NaCl, 5 KCl, 1 MgCl2, 1.2 CaCl2, 20 Na-HEPES, 10 glucose, 1 pyruvate, 0.1% fatty acid free-BSA. After pacing the cells at 0.5 Hz for 30-40 sec, cells were perfused with the modified Tyrode buffer containing caffeine (10 mM). Images were analyzed using image J (NIH). Line plots (trace plots) were generated for both action potential and calcium transients by calculating average intensity (and standard deviation) from 3 biological batches with >100 cells for each timepoint and plotting it against the time (using R).

For series [3], the system named is hiPSC-CMs. In words: Acute pathological hypertrophy model (endothelin-1 treatment), functional evaluation. The following applies: for effect on FAO / effect on OxPhos / effect on glycolysis: 10 nM, 48 hrs. On the procedure:
Human iPSC culture and cardiac differentiation. Human iPSCs (WTC-11) were cultured using chemically defined medium and published protocols (Burridge et al., 2014; Tohyama et al., 2013). Undifferentiated iPSCs were seeded (125,000 cells per cm^2) on Geltrex (ThermoScientific)-coated six-well plates and maintained in E8 medium (Life Technologies) for 4 days when they reached 80-85% confluence. Medium was then changed to cardiac differentiation medium (CDM), consisting of RPMI 1640 medium (11875, ThermoScientific), 500 μg/ml O. sativa—derived recombinant human albumin (A9731, Sigma-Aldrich), and 220 μg/ml L-ascorbic acid (A4544-Sigma-Aldrich), containing B27 supplement-insulin free (A1895601 ThermoScientific) to initiate differentiation. On d0-d2, medium was supplemented with 6 μM CHIR99021 (LC Laboratories) for induction of mesoderm. On d4-d5, medium was supplemented with 10 uM IWR (Selleck Chemicals) for cardiac differentiation. Contracting cells are typically noted, starting on d7-d8. To purify cardiac myocytes, a variant of RPMI 1640 medium without D-glucose (11879, Life Technologies) was supplemented with 4 mM sodium lactate (L4263, Sigma-Aldrich) for 2 days on day 10 of differentiation followed by culture in cardiac media, containing B-27™ Supplement with insulin (17504001, ThermoScientific) in CDM medium (Tohyama et al., 2013). Cells were dissociated on d13-d14 using TrypLE (ThermoScientific) and plated/cultured on either flat/anisotropic cell culture surfaces for 15-16 further days (d30 for flat and CMM) or 45 days (d60 for flat culture surface) in cardiac culture media. Cardiac culture media was used in all the conditions from day 13-d14 onwards, and it was composed of RPMI-1640, lipid-enhanced Cellastium S, 220 μg/ml L-ascorbic acid and B27 with insulin. Control flat tissue-culture surfaces were coated with fibronectin at a concentration of 4 μg/cm^2. For hypertrophy induction, day 30 differentiated cells were treated with 10 nM endothelin 1 (E7764 Millipore Sigma) for 48 hrs in cardiac culture media.
Mitochondrial respiration. Cellular energetics was monitored using the Seahorse Bioscience XF instrument in intact cells (non-permeabilized cells) and permeabilized cells(Afzal et al., 2017; Salabei et al., 2014). Intact cell respiration was monitored to evaluate the contribution of oxidative phosphorylation versus glycolysis, whereas permeabilized cell respiration was used to monitor electron transport chain (ETC) complex function/activity using ETC complex specific substrates and fatty acid oxidation.
For permeabilized cell respiration, iPSC-CMs were permeabilized using […] of Seahorse XF Plasma Membrane Permeabilizer (Part #102504-100). In permeabilized cells only OCR is measured. Mitochondria respiration were assayed using Buffer (pH 7.2) containing 137 mM KCl, 2 mM KH2PO4, 0.5 mM EGTA, 2.4 mM MgCl2, 20 mM HEPES with 0.2% fatty acid-free BSA (Sigma). Respiration rates were normalized to the protein concentration using BCA assay. Complex I respiration were evaluated by 5 mM glutamate and 5 mM malate (G/M) to evaluate State 4 respiration; 4 mM ADP was then injected to evaluate State 3 respiration. Maximal respiratory capacity (uncoupled mitochondria) was measured by injecting […]. Coupling of Electron Transport Chain respiration to ATP synthesis were evaluated using the ATP synthase inhibitor oligomycin (4 uM). Complex II respiration were measured using 5 mM succinate. Fatty acid oxidation was measured by injecting 200 uM of Palmitoyl-1-carnitine chloride/2.5 mM Malate and assessing the increase in OCR.
Florescence from cells (transduced with probes) was collected separately at a […] using an electron-multiplying charge-coupled device (EMCCD) camera using Andor Revolution X1 Spinning Disk confocal inverted microscope. Data was acquired with 2×2 pixel binning. ROS (roGFP2-Grx) probes were excited with 405 nm and 488 nm laser and emission was detected using bandpass filter of 500 nm-554 nm. […]

With `CN(CCOc1ccc(NS(C)(=O)=O)cc1)CCc1ccc(NS(C)(=O)=O)cc1` [Dofetilide], in the series on hiPSC-CMs [1] (10 nM), the “tolerance of cells to 10 nM dose” value is “fail to tolerate”. In the series on hiPSC-CMs [1] (Dofetilide IKr 3 nM), the “effect on action potential” value is “AP prolongation and early after depolarization (EAD); also recorded: appearance of EAD and APD prolongation”.

Regarding `CCN(CC)CC(=O)Nc1c(C)cccc1C` [Lidocaine], the “reduction of beat frequency” value with hiPSC-CMs [1] (Lidocaine INa 100 um, 2 biological batches, n=30) was roughly 40%.

Regarding `Cn1c(=O)c2c(ncn2C)n(C)c1=O` [caffeine], the “calcium amplitude following caffeine exposure (SR load)” value in the series with hiPSC-CMs [2] (cells matured on CMM) is recorded as “significant increase in amplitude”. In the series on hiPSC-CMs [2] (d30 cells), the “calcium release from SR following caffeine exposure” value is “failed to demonstrate the calcium release”.

Turning to “endothelin 1 (CSCSSLMDKECVYFCHLDIIW; disulfide 1-15, 3-11; ends not checked; UniProt P05305 53-73, looked up) [ET-1, pathological hypertrophy stimulus (E7764 Millipore Sigma)]”, in the series with hiPSC-CMs [3] (both d30 and CMM), the “effect on action potential duration” value is “increase” and the “effect on beating frequency” value is “decrease”. In addition, in the series with hiPSC-CMs [3] (cells on CMM), the “effect on Ca2+ peak amplitude” value is on record as “no significant effect”, the “effect on oxidative stress handling (roGFP2 after H2O2)” value was “unperturbed”, the “effect on FAO” value is listed as “reduction” and the “effect on OxPhos” value was “no effect”. Further, the effect on glycolysis result with hiPSC-CMs [3] (cells on CMM) is listed as “slight increase”. Moreover, the “effect on respiratory control ratio (state 3/state 4)” value with hiPSC-CMs [3] (cells on CMM, acute treatment) is on record as “not affected”. For the same molecule, in the series with hiPSC-CMs [3] (d30 cells), the “effect on Ca2+ peak amplitude” value is “increase in peak amplitude”, the “effect on oxidative stress handling (roGFP2 after H2O2)” value was “reduced oxidative stress handling”, the “effect on FAO” value is “increase” and the “effect on OxPhos” value is on record as “significantly increased”. In addition, the effect on glycolysis entry with hiPSC-CMs [3] (d30 cells) was “significantly increased”.

The values above are taken from patent publication US20230296590A1, “Devices and Methods to Induce Adult type Maturation of Human Pluripotent Stem Cell Derived Cardiomyocytes” (priority 2022, published 2023).
